In patent publication US7432045B2 (priority 2003, dated 2008) one finds IC50 data, which are given here for one molecule.

Peptide text beside a SMILES is read from it. * marks the point of attachment. Biotin = O=C1N[C@H]2[C@H](CS[C@H]2CCCCC(=O)*)N1; Ahx = NCCCCCC(=O)O

This data set is described as follows: in vitro. To be noted: African green monkey.

As to `CC(C)C[C@H](NC(=O)[C@H](C)NC(=O)[C@H](CC(C)C)NC(=O)[C@H](CC(C)C)NC(=O)[C@@H](NC(=O)[C@H](C)NC(=O)[C@@H]1CCCN1C(=O)[C@H](CC(C)C)NC(=O)[C@H](CC(C)C)NC(=O)[C@H](C)NC(=O)[C@@H](NC(=O)[C@H](C)NC(=O)[C@H](C)NC(=O)[C@H](CCCCN)NC(=O)[C@H](CCCCN)NC(=O)[C@H](CCCNC(=N)N)NC(=O)[C@H](CCCNC(=N)N)NC(=O)CCCCCNC(=O)CCCC[C@@H]1SC[C@@H]2NC(=O)N[C@@H]21)C(C)C)C(C)C)C(=O)N[C@@H](CC(C)C)C(=O)N[C@@H](C)C(=O)N1CCC[C@H]1C(=O)O` [bEB] ({Biotin-Ahx}-RRKKAAVALLPAVLLALLAP-OH), the IC50 (in general, the concentration at which inhibition is half-maximal) came to 100 µM.
